This is an account of results in US8865659B2, “Compositions for prevention or treatment of Hepatitis C virus containing ginsenoside Rg3 as an active ingredient” (priority 2012, dated 2014).

Assay [1] concerns thioredoxin. The assay is described as follows: Western blotting against thioredoxin in JFH-1 infected Huh 7.5.1 cells. The class given is cell-based. Conditions: 100 μM, 72 hours. The protocol: To examine the ginsenoside Rg3 effect onto anti-oxidant enzymes, western blotting analysis against thioredoxin, an anti-oxidant enzyme induced by Hepatitis C, was carried out. the analysis was conducted 72 hours after the samples of Huh 7.5.1 cells treated with each 100 μM of seven ginsenosides (Ro, Re, Rg1, Rg2, Rg3, Rh1, Rh2) as described above in the Example 3.
Specifically, western blotting analysis was carried out as follow. First, the above described samples were prepared, mixed with a sample buffer in tubes, and heated at 100° C. for 10 minutes. The tubes were cooled on ice and centrifuged. The electrophoresis was carried out with the prepared samples and molecular weight markers were put in. And then, they were transferred to a PVDF membrane (hydrophobic). After blocking with 5% skin milk for an hour, primary antibodies of thioredoxin was added. After staying overnight at 4° C., washing three times for every 10 minutes, blocking with 5% skin milk for an hour at the room temperature was carried out. After that, each secondary antibody was added and waited one hour for its reaction and washing three times for every 10 minutes were carried out. Then, the membrane was stained by 1:1 mixture of detection reagents A (Luminol Enhancer solution) and B (Peroxide solution) and developed with X ray film.
In general terms: A western blot detects proteins with antibodies after separation by electrophoresis.

Assay [2] concerns phospho-NFκB. Briefly: Western blotting onto NFκB and phospho-NFκB in JFH-1 infected Huh 7.5.1 cells. Type of assay: cell-based. Particulars: 100 μM, 72 hours. From the text: Conducted western blotting onto NFκB and phospho-NFκB which are transcription factors of virus suppression mechanism of ginsenosides to a hepatoma cell line.
Specifically, it is known that when cells are infected with hepatitis C viruses, TNF-α in the cells increases and, apoptosis actions in the cells increases due to an anti-apoptotic factor, NFkB decreases. Additionally, identification of phosphor-NFκB among NFκB (total) is important to know activation level of NFκB.
Herein, western blotting analysis onto NFκB and phospho-NFκB, transcription factors, was carried out to identify the TNF-α mediated apoptotic signaling pathway. The TNF-α is induced by Hepatitis C. The analysis was conducted 72 hours after the samples of Huh 7.5.1 cells treated with each 100 μM of seven ginsenosides (Ro, Re, Rg1, Rg2, Rg3, Rh1, Rh2) as above stated in Example 3.
Specifically, the western blotting analysis was carried out as follow. First, the above described samples were prepared, mixed with a sample buffer in tubes and heated at 100° C. for 10 minutes. The tubes were cooled on ice and centrifuged. The electrophoresis was carried out with the prepared samples and molecular weight markers were put in. And then, they were transferred to a PVDF membrane (hydrophobic). After blocking with 5% skin milk for an hour, primary antibodies of NFκB and phospho-NFκB were added. […]

For assay [3], the target named is T1, HCV NS3/4A protease (Hepatitis C virus genotype 2a, UniProt Q99IB8).
T1 construct: Diluted HCV NS3 protease to an appropriate concentration in assay buffer; expressed in transfected cells; host or cells: HCV replicon-containing Huh7 cells (membrane fractions)
T1 sequence (Q99IB8 1031-1661): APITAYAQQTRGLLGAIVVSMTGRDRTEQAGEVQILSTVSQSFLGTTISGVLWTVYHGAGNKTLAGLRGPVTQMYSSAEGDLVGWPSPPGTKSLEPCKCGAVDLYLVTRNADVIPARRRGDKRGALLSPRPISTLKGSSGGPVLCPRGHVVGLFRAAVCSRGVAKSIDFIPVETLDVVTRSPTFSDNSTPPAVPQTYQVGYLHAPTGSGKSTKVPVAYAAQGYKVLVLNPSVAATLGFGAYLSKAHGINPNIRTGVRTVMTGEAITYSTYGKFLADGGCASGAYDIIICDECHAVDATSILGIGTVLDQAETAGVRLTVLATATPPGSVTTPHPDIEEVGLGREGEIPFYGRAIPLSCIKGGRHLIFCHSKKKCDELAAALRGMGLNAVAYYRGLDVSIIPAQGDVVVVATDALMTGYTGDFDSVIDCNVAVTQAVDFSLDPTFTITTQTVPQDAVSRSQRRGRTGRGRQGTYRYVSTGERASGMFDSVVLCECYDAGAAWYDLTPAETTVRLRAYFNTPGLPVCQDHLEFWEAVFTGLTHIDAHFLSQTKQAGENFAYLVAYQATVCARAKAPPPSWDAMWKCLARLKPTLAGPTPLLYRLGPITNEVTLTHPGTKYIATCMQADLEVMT
T1 sequence (Q99IB8 1662-1715): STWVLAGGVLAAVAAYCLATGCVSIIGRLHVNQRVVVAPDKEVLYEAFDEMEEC
Briefly: HCV NS3/4A protease activity (HCV Protease Assay kit, ANASPEC). Type of assay: biochemical. Here is the method: HCV Protease Assay kit (ANASPEC) was used to the following experiments. The components, description and quantity were as follows:
Diluted HCV protease substrate (Component A) 1:50 in assay buffer.
Diluted HCV NS3 protease to an appropriate concentration in assay buffer.
b) Mixed an equal volume of the HCV NS3 protease diluent and Pep4AK diluent. Incubated the mixture at 23-25° C. for 15 min.
The HCV replicon-containing cells (e.g. 1×10^7-10^8 Huh7 cells) grew to 90% confluence. The cells were washed with 1× phosphate-buffered saline once, and then the cells were detached by scraping. The cell pellets were harvested by centrifuging at 900×g for 10 min at 4° C. The cell pellets were resuspended with 1 mL of hypotonic buffer (10 mM Tris-HCl, pH 7.8, 10 mM NaCl), and then the cell pellets were incubated on ice for 15-20 min. The cell pellets were disrupted with 50 strokes of a tight fitting pestle in a Dounce homogenizer. The homogenate was centrifuged at 900×g for 5 min at 4° C. to remove the nuclei, which was in the pellet. […]
For kinetics reading: Immediately started measuring fluorescence intensity at Ex/Em=490 nm/520 nm continuously and recorded data every 5 min for 30 to 60 min.
For end-point reading: Incubated the reaction at room temperature for 30 to 60 minutes. […] Then measured fluorescence intensity at Ex/Em=490 nm/520 nm.

As for `CC(C)=CCC[C@](C)(O)[C@H]1CC[C@]2(C)[C@@H]1[C@H](O)C[C@@H]1[C@@]3(C)CC[C@H](O[C@@H]4O[C@H](CO)[C@@H](O)[C@H](O)[C@H]4O[C@@H]4O[C@H](CO)[C@@H](O)[C@H](O)[C@H]4O)C(C)(C)[C@@H]3CC[C@]12C` [ginsenoside Rg3], the thioredoxin result in assay [1] is “decreased”. Also, the apoptosis of cells entry in assay [2] is reported as “remarkably decreased”. In assay [3], the NS3/4 protease activity entry is reported as “inhibited” and the “NS3/4 protease activity, dose dependence” value is “dose-dependent manner”.
